Biological target: T1, CCR(9) (Homo sapiens, UniProt P51686)
T1 construct: CCR(9)-expressing cells such as T cell line MOLT-4 cells; host or cells: MOLT-4 T cell line
T1 sequence (P51686 1-369): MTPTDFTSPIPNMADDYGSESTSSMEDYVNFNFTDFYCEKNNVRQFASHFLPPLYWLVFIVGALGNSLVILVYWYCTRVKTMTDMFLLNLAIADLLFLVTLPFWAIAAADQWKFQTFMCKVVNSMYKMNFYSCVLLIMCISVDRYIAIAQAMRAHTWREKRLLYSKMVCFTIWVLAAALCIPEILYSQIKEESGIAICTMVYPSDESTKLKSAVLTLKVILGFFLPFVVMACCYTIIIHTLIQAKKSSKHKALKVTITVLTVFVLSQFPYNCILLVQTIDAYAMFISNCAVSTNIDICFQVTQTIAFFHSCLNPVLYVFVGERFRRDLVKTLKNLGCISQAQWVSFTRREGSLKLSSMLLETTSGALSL
Test: calcium mobilization assay (FLIPR, MOLT-4 cells, hTECK)
Format: cell-based
Conditions: read-out: CCR(9) Ca^2+
Procedure: In calcium signaling assays used to determine the ability of a compound to interfere with binding between a chemokine receptor and a known chemokine ligand, chemokine receptor-expressing cells (CCR(9)-expressing cells such as T cell line MOLT-4 cells) are first incubated with a compound of interest, such as a potential chemokine antagonist, at increasing concentrations. The cell number can be from 10^5 to 5×10^6 cells per well in a 96-well microtiter plate. The concentration of the compound being tested may range from 0 to 100 μM. After a period of incubation (which can range from 5 to 60 minutes), the treated cells are placed in a Fluorometric Imaging Plate Reader (FLIPR®) (available from Molecular Devices Corp., Sunnyvale, Calif.) according to the manufacturer's instruction. The FLIPR® system is well known to those skilled in the art as a standard method of performing assays. The cells are then stimulated with an appropriate amount of the chemokine ligand (TECK for CCR(9)) at 5-100 nM final concentration, and the signal of intracellular calcium increase (also called calcium flux) is recorded. The efficacy of a compound as an inhibitor of binding between the chemokine and the ligand can be calculated as an IC50 (the concentration needed to cause 50% inhibition in signaling) or IC90 (at 90% inhibition).
MOLT-4 cells were obtained from the American Type Culture Collection (Manassas, Va.) and cultured in RPMI tissue culture medium supplemented with 10% fetal calf serum (FCS) in a humidified 5% CO2 incubator at 37° C. Recombinant human chemokine proteins TECK was obtained from R&D Systems (Minneapolis, Minn.). ChemoTX® chemotaxis microchambers were purchased from Neuro Probe (Gaithersburg, Md.). CyQUANT® cell proliferation kits were purchased from Molecular Probes (Eugene, Oreg.). Calcium indicator dye Fluo-4 AM was purchased from Molecular Devices (Mountain View, Calif.).
A cytoplasmic calcium mobilization assay was used to determine the efficacy of potential receptor antagonists at blocking the signals mediated through chemokine receptors, such as CCR(9). This assay was routinely performed using the Fluorescent Imaging Plate Reader (FLIPR, Molecular Devices). MOLT-4 cells were labeled with the fluorescent-indicator dye Fluo-4 (Molecular Devices) according to the manufacturer's directions. After labeling, the cells were collected by centrifugation (400×g for 5 min at room temperature) and resuspended in HBSS to a cell density of 2.5×10^6 cells/mL. Test compounds were prepared in 100% DMSO at 100× the final concentration; generally, a range of concentrations of each compound were tested, with final concentrations from 0.1 nM to 10,000 nM. Labeled cells (300 μL) were mixed with compound or an equal volume of DMSO (3 μL) in a 96-well plate; after thorough mixing, 50 μL of this cell/compound mixture was added to each of four wells of a 384-well FLIPR plate. The chemokine agonist (i.e., hTECK), prepared in HBSS at a 5× concentration of the previously determined EC^50 concentration, was added to each well and resulting changes in the fluorescent intensity, indicative of chemokine receptor-mediated signaling, were recorded on the FLIPR.

IC50 [nM]	SMILES
> 1000	CC(C)(C)c1ccc(S(=O)(=O)Nc2cc(C(F)(F)F)nn2-c2cccc3cccnc23)cc1
< 100	CC(C)(C)c1ccc(S(=O)(=O)Nc2cc(C(F)(F)F)nn2-c2ncnc3ccccc23)cc1
< 100	Cc1cc(NS(=O)(=O)c2ccc3c(c2)CCC3(C)C)n(-c2cccc3ncccc23)n1
< 100	Cc1cc(NS(=O)(=O)c2ccc3c(c2)CC(C)(C)O3)n(-c2cccc3ncccc23)n1
< 100	Cc1cc(NS(=O)(=O)c2ccc(C(C)(C)C)cc2)n(-c2ncnc3ccccc23)n1
< 100	CCOc1ccc(S(=O)(=O)Nc2cc(C)nn2-c2cccc3ncccc23)cc1
< 100	Cc1cc(NS(=O)(=O)c2ccc(C(C)(C)C)cc2)n(-c2cccc3[nH]c(=O)ccc23)n1
< 100	Cc1cc(NS(=O)(=O)c2ccc(C3(C#N)CC3)cc2)n(-c2cccc3ncccc23)n1
100 to 1000	COc1ccc(S(=O)(=O)Nc2cc(C)nn2-c2cccc3ncccc23)cc1
< 100	Cc1cc(NS(=O)(=O)c2ccc(C(C)(C)O)cc2)n(-c2cccc3ncccc23)n1
< 100	CCc1ccc(S(=O)(=O)Nc2cc(C)nn2-c2cccc3ncccc23)cc1
< 100	Cc1cc(NS(=O)(=O)c2ccc(C(C)(C)C)cc2)n(-c2ccc(N(C)C)c3ccccc23)n1
< 100	Cc1cc(NS(=O)(=O)c2ccc(C(C)(C)C)cc2)n(-c2c(C)ccc3ncccc23)n1
100 to 1000	CC(C)c1cc(NS(=O)(=O)c2ccc(C(C)(C)C)cc2)n(-c2cccc3ncccc23)n1
< 100	COc1ccc2ncccc2c1-n1nc(C)cc1NS(=O)(=O)c1ccc(C(C)(C)C)cc1
100 to 1000	Cc1cc(NS(=O)(=O)c2ccc(OC(C)(C)C)cc2)n(-c2cccc3ncccc23)n1
< 100	Cc1cc(NS(=O)(=O)c2ccc(N3CCOCC3)cc2)n(-c2cccc3ncccc23)n1
> 1000	Cc1cc(NS(=O)(=O)c2ccc(C(C)(C)C)cc2)n(-c2cccc3cnncc23)n1
< 100	Cc1cc(NS(=O)(=O)c2ccc(C(C)(C)C)cc2)n(-c2cccc3nccc(C)c23)n1
< 100	CC(C)(C)c1ccc(S(=O)(=O)Nc2cc(CO)nn2-c2cccc3ncccc23)cc1
< 100	Cc1cc(NS(=O)(=O)c2ccc(N3CCOCC3)c(F)c2)n(-c2cccc3ncccc23)n1
< 100	CC(C)(C)c1ccc(S(=O)(=O)Nc2c3c(nn2-c2cccc4cnccc24)CCC3)cc1

IC50 [nM]	SMILES
< 100	CC(C)(C)c1ccc(S(=O)(=O)Nc2cc(C3CC3)nn2-c2cccc3ncccc23)cc1
100 to 1000	Cc1cc(NS(=O)(=O)c2ccc(C(C)(C)C)cc2C)n(-c2cccc3ncccc23)n1
< 100	COc1cc(C(C)(C)C)ccc1S(=O)(=O)Nc1cc(C)nn1-c1cccc2ncccc12
< 100	Cc1cc(NS(=O)(=O)c2ccc(C(C)(C)C)cc2)n(-c2ncc(C)c3ccccc23)n1
100 to 1000	Cc1cc(NS(=O)(=O)c2ccc(C(C)(C)C)cc2)n(-c2ccc3ccccc3n2)n1
< 100	Cc1cc(NS(=O)(=O)c2ccc(C(C)(C)C)cc2)n(-c2ccc(Cl)c3nccc(C)c23)n1
100 to 1000	Cc1cnc2cccc(-n3nc(C)cc3NS(=O)(=O)c3ccc(C(C)(C)C)cc3)c2c1
< 100	Cc1cc(NS(=O)(=O)c2ccc(C(C)(C)C)cc2)n(-c2ccc3ncccc3c2)n1
< 100	Cc1cc(NS(=O)(=O)c2ccc(C(C)(C)C)cc2)n(-c2ccnc3ccc(F)cc23)n1
< 100	Cc1nn(-c2cccc3ncccc23)c(NS(=O)(=O)c2ccc(C(C)(C)C)cc2)c1F
100 to 1000	Cc1cc(NS(=O)(=O)c2ccc(C(C)(C)C)cc2)n(Cc2cccc3ncccc23)n1
< 100	Cc1cc(NS(=O)(=O)c2ccc(C(C)(C)C)cc2)n(Cc2cccc3cnccc23)n1
< 100	Cc1cc(NS(=O)(=O)c2ccc(C(C)(C)C)cc2)n(-c2cc3ccccc3cn2)n1
< 100	CC(C)(C)c1ccc(S(=O)(=O)Nc2cc(CC#N)nn2-c2cccc3ncccc23)cc1
< 100	Cc1cnc2c(Cl)ccc(-n3nc(C)cc3NS(=O)(=O)c3ccc(C(C)(C)C)cc3)c2c1
< 100	CC(C)Oc1ccc(S(=O)(=O)Nc2cc(C(C)(F)F)nn2-c2cccc3ncccc23)cc1
< 100	Cc1cc(NS(=O)(=O)c2ccc3c(c2)CCC(C)(C)O3)n(-c2cccc3ncccc23)n1
< 100	CC(C)c1ccc(S(=O)(=O)Nc2cc(C(C)(F)F)nn2-c2cccc3ncccc23)cc1
100 to 1000	CC(C)(C)c1ccc(S(=O)(=O)Nc2cc(C(N)=O)nn2-c2cccc3ncccc23)cc1
< 100	CC(C)(C)c1ccc(S(=O)(=O)Nc2cc(C(C)(F)F)nn2-c2cccc3ncccc23)cc1
< 100	Cc1cc(NS(=O)(=O)c2ccc(C(C)(C)C)cc2)n(-c2ccc3ccccc3c2)n1
